Residues, ends and D or L forms follow the SMILES beside them. *: point of attachment. Cbz = O=C(OCc1ccccc1)*; CH2F = FC*
Columns and labels:
TrkC [1] = target: T1, TrkC (Mus musculus, UniProt Q6VNS1); assay: TrkC cleavage in semidissociated embryonic mouse DRG (Western blot); assay type: cell-based; details: DRG maintained overnight; NT-3 10 ng/ml
T1 construct: embryonic mouse dorsal root ganglion (DRG) were semidissociated and maintained overnight; from tissue; host or cells: spinal cord, somites and DRG precursors of E10.5 OF1 mouse embryos, semidissociated
Procedure: (§1) To observe the cleavage of TrkC in 13.S.24, MG132 ([…], Z-Leu-Leu-Leuala, Sigma-Aldrich) was added to the culture medium 2 h before harvesting the cells. Cells were then potterised in the Wang buffer (20 mM Hepes KOH/10 mMKCl/1.5 mM MgC12/1 mM Sodium EDTA/1 mM Sodium EGTA/0.1 mM PMSF/1 mM DTT/[…]). Proteins were then analyzed by Western blot using the anti-TrkC antibody (sc-139; Santa Cruz Biotechnology). To monitor TrkC cleavage in vivo, E10.5 OF1 mouse embryos were dissected with a sharpened tungsten needle to isolate the spinal cord, the somites and DRG precursors which were then semidissociated in DMEM F-12 (Invitrogen). The samples were incubated overnight under agitation at 37° C. in the presence or absence of either NT-3 (PreproTech; 10 ng/ml), or BAF (Sigma-Aldrich; […]), or the NT-3 blocking antibody AF1404 (R&D, Minneapolis, Minn.; 1/100). The samples were then lysed directly in the Laemmli sample buffer and the proteins separated on 12% SDS/PAGE. The filter was probed with the anti-TrkC antibody.

TrkC [2] = target: T2, TrkC (Homo sapiens, UniProt Q16288); assay: Endogenous TrkC cleavage in CLB-Ge2 cells (western blot); assay type: cell-based; parameters: endogenous in cells; host or cells: CLB-Ge2 human neuroblastoma cells
Procedure: 8×10^4 cells were cytospun on coverslips and fixed in 4% PFA. The slides were then incubated at room temperature for one hour with an antibody recognizing human NT-3 (1/300, SC-547). After rinsing in Phosphate Buffer Saline, the slides were incubated with an Alexa-488-Donkey anti-Rabbit antibody (Molecular Probes). Nucleus were visualized with Hoechst staining (Sigma). Expression of TrkC constructs and endogenous TrkC cleavage were monitored by western blot with anti-Trk antibody (sc-11; Santa Cruz Biotechnology) and an anti […]-actin (13E5; Cell Signaling) was used as loading control as previously described (36).

TrkC [3] = assay: TrkC caspase cleavage in TrkC-expressing 13.S.24 cells (immunoblot); assay type: cell-based, rat; details: 13.S.24 cells expressing TrkC; C-terminal TrkC antibody
Procedure: as §1

rat TrkC = target: T3, rat TrkC (Rattus norvegicus, UniProt Q03351); assay: TrkC-induced apoptosis in TrkC-transfected HEK293T or 13.S.24 cells (trypan blue, caspase activity, DNA condensation); assay type: cell-based; details: for TrkC-induced apoptosis: general caspase inhibitors added after TrkC transfection
T3 construct: We first transiently expressed full-length rat TrkC in HEK293T cells; HA; expressed in transfected cells; host or cells: HEK293T or 13.S.24 olfactory neuroblasts
Procedure: (§2) Transient transfections of Human Embryonic Kidney 293T and olfactory neuroblasts 13.S.24 cells were performed as previously described (4), by using Lipofectamine Plus (Invitrogen, Carlsbad, Calif.) according to the manufacturer's instructions. HEK293T and 13.S.24 cells where cultured in DMEM (Invitrogen) with the addition of 0.1% gentamycin for 13.S.24 cells. The recombinant human NT-3 was purchased from PreproTech (Rocky Hill, N.J.) and added to the culture medium 3 and 24 h after transfection. TrkC expression was monitored by Western blot with an anti-C-terminal antibody purchased from Santa Cruz Biotechnology (sc-139; Santa Cruz, Calif.), 24 h after transfection. Plasma membrane localisation of Trk receptors was performed by FACS analysis. Briefly, […] cells were transfected and labeled successively with anti-HA antibody (1/100; Sigma, St. Louis, Mo.) and anti-rabbit PE (1/100; Jackson ImmunoResearch Laboratories, West Grove, Pa.). Detection was done using a FACSCalibur (BD Biosciences, San Jose, Calif.).
Cell death was analyzed using trypan blue staining procedures, as previously described (6). Either the z-VAD-fmk (TEBU-bio, Le Perray en Yvelines Cedex, France; […]) or the BAF [Boc-Asp(Ome) Fluoromethyl Ketone; Sigma-Aldrich; […]] caspase inhibitors were added to the culture medium just after transfection. The extent of cell death is presented as the percentage of trypan blue-positive cells in the different transfected cell populations. Relative caspase activity was determined by fluorescence measurement of DEVDAFC cleavage, as described in (8). Immunostaining using anti-caspase-3 antibody (Cell Signaling) was described in (4). […] For flow cytometric analysis, stained cells were counted using a FACSCalibur (BD Biosciences) and CellQuest analysis software with excitation and emission settings of 488 nm and 525-550 nm (filter FL1), respectively.

TrkC [4] = target: T2, TrkC; assay: Human TrkC-induced cell death in transfected 13.S.24 cells (active caspase-3); assay type: cell-based; parameters: expressed in transfected cells; host or cells: 13.S.24 olfactory neuroblasts; details: NT-3 10 ng/ml
Procedure: as §2, with “Detection was done using a FACSCalibur (BD Biosciences, San Jose, Calif.).” left out
Cell death was analyzed using trypan blue staining procedures, as previously described (6). […] Relative caspase activity was determined by fluorescence measurement of DEVDAFC cleavage, as described in (8). […] For flow cytometric analysis, stained cells were counted using a FACSCalibur (BD Biosciences) and CellQuest analysis software with excitation and emission settings of 488 nm and 525-550 nm (filter FL1), respectively.

T3 sequence (Q03351 32-825 isoform Q03351-2 limits assumed): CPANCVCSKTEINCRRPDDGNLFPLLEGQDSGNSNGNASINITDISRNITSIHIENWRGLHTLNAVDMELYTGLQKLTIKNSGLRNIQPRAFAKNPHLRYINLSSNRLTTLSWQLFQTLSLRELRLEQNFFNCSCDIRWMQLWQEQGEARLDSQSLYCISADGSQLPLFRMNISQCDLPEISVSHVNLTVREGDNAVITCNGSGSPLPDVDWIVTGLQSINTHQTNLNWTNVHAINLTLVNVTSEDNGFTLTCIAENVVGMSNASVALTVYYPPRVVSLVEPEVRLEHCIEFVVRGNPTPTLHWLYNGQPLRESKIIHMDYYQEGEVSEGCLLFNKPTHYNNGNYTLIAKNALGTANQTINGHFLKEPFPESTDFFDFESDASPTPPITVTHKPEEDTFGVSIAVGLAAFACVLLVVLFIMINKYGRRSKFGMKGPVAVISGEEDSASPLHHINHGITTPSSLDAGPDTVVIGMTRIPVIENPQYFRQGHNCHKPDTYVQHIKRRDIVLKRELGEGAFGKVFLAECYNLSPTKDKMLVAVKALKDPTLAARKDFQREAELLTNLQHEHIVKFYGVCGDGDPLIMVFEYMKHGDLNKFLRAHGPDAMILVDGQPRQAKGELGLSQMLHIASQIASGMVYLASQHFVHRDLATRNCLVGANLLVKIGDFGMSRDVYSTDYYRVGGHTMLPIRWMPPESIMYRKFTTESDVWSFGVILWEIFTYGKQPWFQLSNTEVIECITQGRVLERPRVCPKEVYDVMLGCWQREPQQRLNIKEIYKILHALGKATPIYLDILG
T1 sequence (Q6VNS1 32-825): as the sequence (Q03351 32-825 isoform Q03351-2 limits assumed) above
T2 sequence (Q16288 32-839): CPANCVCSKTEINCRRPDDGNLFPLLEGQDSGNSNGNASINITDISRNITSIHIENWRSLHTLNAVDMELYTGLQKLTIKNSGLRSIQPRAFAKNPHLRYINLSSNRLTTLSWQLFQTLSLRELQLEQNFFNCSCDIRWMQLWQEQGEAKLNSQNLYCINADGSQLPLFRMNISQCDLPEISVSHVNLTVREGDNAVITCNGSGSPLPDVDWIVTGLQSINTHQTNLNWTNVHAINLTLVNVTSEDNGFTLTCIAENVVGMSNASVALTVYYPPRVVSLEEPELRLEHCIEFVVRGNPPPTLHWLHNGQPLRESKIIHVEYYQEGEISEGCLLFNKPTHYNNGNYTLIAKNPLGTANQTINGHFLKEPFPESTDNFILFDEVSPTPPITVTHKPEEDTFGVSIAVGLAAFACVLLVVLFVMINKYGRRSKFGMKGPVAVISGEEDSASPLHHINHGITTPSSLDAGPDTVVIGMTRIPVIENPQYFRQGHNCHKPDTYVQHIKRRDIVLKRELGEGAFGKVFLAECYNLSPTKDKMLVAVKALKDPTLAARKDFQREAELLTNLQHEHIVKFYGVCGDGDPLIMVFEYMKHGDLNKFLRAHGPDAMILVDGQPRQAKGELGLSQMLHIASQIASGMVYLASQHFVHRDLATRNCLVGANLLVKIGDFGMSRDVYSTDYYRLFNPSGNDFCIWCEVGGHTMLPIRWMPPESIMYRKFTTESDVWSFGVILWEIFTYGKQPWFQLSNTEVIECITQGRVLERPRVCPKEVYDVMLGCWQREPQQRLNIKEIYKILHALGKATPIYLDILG

Compound	20-kDa TrkC fragment (TrkC [1])	TrkC caspase cleavage (20 kDa band) (TrkC [2])	TrkC cleavage bands (35 and 20 kDa) (TrkC [3])	TrkC-induced apoptosis (rat TrkC)	human TrkC-triggered cell death (TrkC [4])	TrkC-mediated cell death (trypan blue exclusion, caspase activity, DNA condensation) (rat TrkC; rat TrkC-transfected 13.S.24 cells, NT-3 0.5-50 ng/ml)
COC(=O)CC(NC(=O)OC(C)(C)C)C(=O)CF (stereo not shown) [BAF, boc-aspartyl(OMe)-fluoromethylketone]	disappeared	blocked	failed to be detected	fully inhibit TrkC-induced apoptosis		
COC(=O)CC[C@H](NC(=O)[C@H](CC(=O)OC)NC(=O)OCc1ccccc1)C(=O)N[C@H](C(=O)N[C@@H](CC(=O)OC)C(=O)CF)C(C)C [DEVD-fmk]			fail to block caspase-dependent cleavage of TrkC			
COC(=O)C[C@H](NC(=O)[C@H](C)NC(=O)[C@@H](NC(=O)OCc1ccccc1)C(C)C)C(=O)CF [zVAD-fmk] (Cbz-Val-Ala-Asp(OMe)-CH2F)			failed to be detected	fully inhibit TrkC-induced apoptosis		
NT-3: recombinant human NT-3 purchased from PreproTech; ligand of TrkC	disappeared				triggers cell death unless NT-3 is present	inhibited, in a dose-dependent manner

— patent US20140186364A1, “INHIBITION OF THE NT-3:TRKC BOUND AND ITS APPLICATION TO THE TREATMENT OF CANCER SUCH AS NEUROBLASTOMA” (CENTRE NATIONAL DE LA RECHERCHE SCIENTIFIQUE (CNRS), priority 2008, published 2014)
